Experimental data published in ChEMBL document CHEMBL1132660, “Three-dimensional quantitative structure-activity relationship study on cyclic urea derivatives as HIV-1 protease inhibitors: application of comparative molecular field analysis” (J Med Chem, 1999).

Biological target: Human immunodeficiency virus type 1 protease (Human immunodeficiency virus 1, UniProt Q72874)
Test: Inhibition of HIV-1 protease

SMILES	Ki [nM]
CC(C)(C)CCN1C(=O)N(CCC(C)(C)C)[C@H](Cc2ccccc2)[C@H](O)[C@@H](O)[C@H]1Cc1ccccc1	36
COc1cc(OC)cc(N2C(=O)N(Cc3cccc(C(=O)Nc4ccccn4)c3)[C@H](Cc3ccccc3)[C@H](O)[C@@H](O)[C@H]2Cc2ccccc2)c1	0.86
O=C(NCc1ccccc1)c1cccc(CN2C(=O)N(Cc3cccc(C(=O)NCc4ccccc4)c3)[C@H](Cc3ccccc3)[C@H](O)[C@@H](O)[C@H]2Cc2ccccc2)c1	0.43
COc1cc(OC)cc(N2C(=O)N(Cc3cccc(C(=O)Nc4ccc(C)cn4)c3)[C@H](Cc3ccccc3)[C@H](O)[C@@H](O)[C@H]2Cc2ccccc2)c1	1.9
COc1cccc(N2C(=O)N(Cc3cccc(C(=O)Nc4cnccn4)c3)[C@H](Cc3ccccc3)[C@H](O)[C@@H](O)[C@H]2Cc2ccccc2)c1	0.038
Nc1cccc(N2C(=O)N(Cc3cccc(C(=O)Nc4cnccn4)c3)[C@H](Cc3ccccc3)[C@H](O)[C@@H](O)[C@H]2Cc2ccccc2)c1	0.016
O=C(Nc1ccccn1)c1cccc(CN2C(=O)N(c3cccc([N+](=O)[O-])c3)[C@H](Cc3ccccc3)[C@H](O)[C@@H](O)[C@H]2Cc2ccccc2)c1	0.096
N#CCNC(=O)c1cccc(CN2C(=O)N(C(=O)CNC(=O)c3ccccc3)[C@H](Cc3ccccc3)[C@H](O)[C@@H](O)[C@H]2Cc2ccccc2)c1	0.024
COc1cccc(N2C(=O)N(Cc3cccc(C(=O)Nc4ccccn4)c3)[C@H](Cc3ccccc3)[C@H](O)[C@@H](O)[C@H]2Cc2ccccc2)c1	0.047
Nc1cccc(N2C(=O)N(Cc3cccc(C(=O)Nc4ncc[nH]4)c3)[C@H](Cc3ccccc3)[C@H](O)[C@@H](O)[C@H]2Cc2ccccc2)c1	0.012
COc1cc(OC)cc(N2C(=O)N(Cc3cccc(C(=O)Nc4cnccn4)c3)[C@H](Cc3ccccc3)[C@H](O)[C@@H](O)[C@H]2Cc2ccccc2)c1	2.51
O=C(NCC1CC1)c1cccc(CN2C(=O)N(Cc3cccc(C(=O)NCC4CC4)c3)[C@H](Cc3ccccc3)[C@H](O)[C@@H](O)[C@H]2Cc2ccccc2)c1	0.741
COc1cccc(N2C(=O)N(Cc3cccc(C(=O)Nc4cccc(C)n4)c3)[C@H](Cc3ccccc3)[C@H](O)[C@@H](O)[C@H]2Cc2ccccc2)c1	0.053
COc1cccc(N2C(=O)N(Cc3cccc(C(=O)Nc4ccc(C)cn4)c3)[C@H](Cc3ccccc3)[C@H](O)[C@@H](O)[C@H]2Cc2ccccc2)c1	0.069
Cc1ccc(NC(=O)c2cccc(CN3C(=O)N(c4cccc(N)c4)[C@H](Cc4ccccc4)[C@H](O)[C@@H](O)[C@H]3Cc3ccccc3)c2)nc1	0.075
Nc1cccc(N2C(=O)N(Cc3cccc(C(=O)Nc4nc5ccccc5[nH]4)c3)[C@H](Cc3ccccc3)[C@H](O)[C@@H](O)[C@H]2Cc2ccccc2)c1	0.023
COc1cc(OC)cc(N2C(=O)N(Cc3cccc(C(=O)Nc4cccc(C)n4)c3)[C@H](Cc3ccccc3)[C@H](O)[C@@H](O)[C@H]2Cc2ccccc2)c1	0.7
CC(C)(C)NC(=O)c1cccc(CN2C(=O)N(c3cccc(N)c3)[C@H](Cc3ccccc3)[C@H](O)[C@@H](O)[C@H]2Cc2ccccc2)c1	0.41
O=C1N(Cc2ccc3ccccc3c2)[C@H](Cc2ccccc2)[C@H](O)[C@@H](O)[C@@H](Cc2ccccc2)N1C1CCCC1	0.28
